{
  "source": "patent US6495591B1",
  "about": "“Fungal efflux pump inhibitors” (Essential Therapeutics, Inc., priority 1997, dated 2002)",
  "key": {"[1]": {"system": "S. cerevisiae YEM-3 (no efflux pump introduced)", "assay": "microbe, parasite or virus in culture", "type": "cell-based", "settings": "Saccharomyces cerevisiae, read-out: MIC Mb alone"}, "[2]": {"system": "S. cerevisiae YEM-1 (CDR1 introduced)", "assay": "microbe, parasite or virus in culture", "type": "cell-based", "settings": "Saccharomyces cerevisiae, read-out: MIC Mb alone"}, "[3]": {"system": "S. cerevisiae YEM-37 (CDR2 introduced)", "assay": "microbe, parasite or virus in culture", "type": "cell-based", "settings": "Saccharomyces cerevisiae, read-out: MIC Mb alone"}, "[4]": {"system": "C. albicans YEM-21 (BEN deleted)", "assay": "microbe, parasite or virus in culture", "type": "cell-based"}, "[5]": {"system": "C. albicans YEM-11 (BEN overexpressor)", "assay": "microbe, parasite or virus in culture", "type": "cell-based", "settings": "Candida albicans, read-out: MIC Mb alone"}, "[6]": {"system": "C. glabrata YEM-16 (low level CgBEN and CgCDR expression)", "assay": "microbe, parasite or virus in culture", "type": "cell-based"}, "[7]": {"system": "mammalian P-glycoprotein multi-drug resistant pump", "type": "cell-based, mouse", "protocol": "The inhibitory effect of milbemycin β1 against the mammalian P-glycoprotein multi-drug resistant pump was determined following the procedure described by Tsuruo et al (Cancer Res., 1981. 41:1967-1972) with slight modification. The cytotoxicity of antitumor agent, adriamycin, against adriamycin sensitive P388 cell line (mouse leukemia) and its adriamycin resistant subline line (P388/ADM) was measured in the presence of various concentrations of milbemycin β1. […] The assay is performed in serum-free media containing 20 μM of 2-mercaptoethanol. Chemosensitivity to adriamycin was determined […] based on the reduction of MTT (3-[4,5-dimethylthiazol-2-yl]-2,5-diphenyltetrazolium bromide) into blue formazan."}, "[8]": {"assay": "Cytotoxicity TC50 in K-562", "type": "cell-based", "settings": "human, k-562 cells; compound alone"}, "[9]": {"system": "C. albicans YEM-15 (CDR1 & CDR2 overexpressor)", "type": "cell-based"}, "[10]": {"system": "C. krusei YEM-52 (ATCC 90878), wild type", "assay": "Minimal concentration to reduce fluconazole MIC sixteen-fold (Table 7)", "type": "cell-based", "settings": "YEM-52, wild type"}, "[11]": {"system": "C. krusei YEM-71", "assay": "Broth dilution checkerboard, azoles and terbinafine with milbemycin α9 (Table 8)", "type": "cell-based", "set-up": "MIC Reduction Factor, fluconazole / MIC Reduction Factor, itraconazole / MIC Reduction Factor, ketoconazole / MIC Reduction Factor, terbinafine: unit not given beside the values", "settings": "for MIC: Pichia kudriavzevii"}, "[12]": {"system": "S. cerevisiae YEM-37 overexpressing CDR2 (C. albicans)", "assay": "microbe, parasite or virus in culture", "type": "cell-based", "set-up": "MIC Reduction Factor, fluconazole: unit not given beside the values", "settings": "for MIC: Saccharomyces cerevisiae"}, "[13]": {"target": "pFLU (MF) efflux pump in S. cerevisiae YEM-38 (Candida albicans, UniProt G1UB37)", "sequence (G1UB37 whole entry)": "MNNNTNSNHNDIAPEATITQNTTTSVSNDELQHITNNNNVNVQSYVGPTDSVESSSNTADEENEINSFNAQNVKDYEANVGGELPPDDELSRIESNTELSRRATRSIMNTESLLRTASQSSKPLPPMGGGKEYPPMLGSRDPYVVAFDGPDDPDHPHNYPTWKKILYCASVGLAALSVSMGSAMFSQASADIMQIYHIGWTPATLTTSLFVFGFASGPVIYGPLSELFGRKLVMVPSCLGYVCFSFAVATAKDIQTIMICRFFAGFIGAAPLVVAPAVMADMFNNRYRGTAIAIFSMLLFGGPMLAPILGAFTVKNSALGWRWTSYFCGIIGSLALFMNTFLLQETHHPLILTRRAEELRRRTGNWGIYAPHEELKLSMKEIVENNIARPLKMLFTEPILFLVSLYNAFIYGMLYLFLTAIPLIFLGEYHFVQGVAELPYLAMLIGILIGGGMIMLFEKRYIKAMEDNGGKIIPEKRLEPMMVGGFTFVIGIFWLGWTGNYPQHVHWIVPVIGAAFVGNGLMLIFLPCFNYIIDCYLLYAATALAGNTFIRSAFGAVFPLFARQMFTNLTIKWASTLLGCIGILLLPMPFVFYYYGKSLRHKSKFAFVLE", "assay": "cell-based", "type": "cell-based, C. albicans"}, "[14]": {"system": "C. albicans clinical isolates (n = 33)", "assay": "microbe, parasite or virus in culture", "type": "cell-based"}, "[15]": {"system": "C. tropicalis", "assay": "microbe, parasite or virus in culture", "type": "cell-based"}, "[16]": {"settings": "YEM-71, milbemycin α9 at FEPImax"}, "[17]": {"settings": "YEM-37 (CDR2), milbemycin α9 at FEPImax"}, "[18]": {"settings": "YEM-37, milbemycin α9 at FEPImax"}},
  "note": "pIC50: −log10 of the molar value. Where two headings read alike, the source gives them in different places.",
  "data": [
    {"smiles": "CO[C@H]1C[C@@]2(O)/C(CO)=C/C=C/[C@H](C)C/C(C)=C/C[C@@H]3C[C@@H](C[C@]4(CC[C@H](C)[C@@H](C)O4)O3)OC(=O)[C@@H]2C=C1C", "note": "[Compound 6, Milbemycin β1]", "values": [
      {"measurement": "MIC", "setting": "[1]", "result": 8, "unit": "µg/mL"},
      {"measurement": "MIC", "setting": "[2]", "result": 8, "unit": "µg/mL"},
      {"measurement": "MIC", "setting": "[3]", "result": 8, "unit": "µg/mL"},
      {"measurement": "MIC", "setting": "[4]; Candida albicans, read-out: MIC Mb alone", "result": 16, "unit": "µg/mL"},
      {"measurement": "MIC of fluconazole, Flu + Mb (2.5 μg/ml)", "setting": "[4]; YEM-21, BEN deleted, milbemycin β1 2.5 μg/ml", "result": 0.03, "unit": "µg/mL"},
      {"measurement": "MIC", "setting": "[5]", "result": 16, "unit": "µg/mL"},
      {"measurement": "MIC", "setting": "[6]; Nakaseomyces glabratus, read-out: MIC of milbemycin β1 (MB) alone", "result": "> 64", "unit": "µg/mL"},
      {"measurement": "Fluconazole MIC with 2.5 μg/ml milbemycin β1", "setting": "[6]; YEM-16", "result": 1, "unit": "µg/mL"},
      {"measurement": "Fluconazole MIC with 5 μg/ml milbemycin β1", "setting": "[6]; YEM-16", "result": 2, "unit": "µg/mL"},
      {"measurement": "Fluconazole MIC with 10 μg/ml milbemycin β1", "setting": "[6]; YEM-16", "result": 2, "unit": "µg/mL"},
      {"measurement": "Fluconazole MIC with […] milbemycin β1", "setting": "[6]; YEM-16", "result": 2, "unit": "µg/mL"},
      {"measurement": "Potency as inhibitor of the mammalian p-glycoprotein multi-drug resistant pump", "setting": "[7]; compared with verapamil", "result": "potency similar to that of verapamil"},
      {"measurement": "Ratio [P388/A]/[P388]", "setting": "[7]; inhibitor 0.06 μg/ml", "result": 220},
      {"measurement": "Ratio [P388/A]/[P388]", "setting": "[7]; inhibitor 0.25 μg/ml", "result": 75},
      {"measurement": "Ratio [P388/A]/[P388]", "setting": "[7]; inhibitor 0.5 μg/ml", "result": 32},
      {"measurement": "Ratio [P388/A]/[P388]", "setting": "[7]; inhibitor 1 μg/ml", "result": 23},
      {"measurement": "Ratio [P388/A]/[P388]", "setting": "[7]; inhibitor 2 μg/ml", "result": 4},
      {"measurement": "Ratio [P388/A]/[P388]", "setting": "[7]; inhibitor 3.125 μg/ml", "result": 5},
      {"measurement": "CC50", "setting": "[8]", "result": 8, "unit": "µM"},
      {"measurement": "Minimal concentration required to reduce the MIC of fluconazole by sixteen-fold", "setting": "[9]", "result": "<0.07", "unit": "µg/mL"},
      {"measurement": "Minimal concentration required to reduce the MIC of fluconazole by sixteen-fold", "setting": "[10]", "result": 1.25, "unit": "µg/mL"}
    ]},
    {"smiles": "C/C1=C\\C[C@@H]2C[C@@H](C[C@]3(CC[C@H](C)[C@@H](C)O3)O2)OC(=O)[C@@H]2C=C(COC(=O)c3ccc[nH]3)[C@@H](O)[C@H]3OC/C(=C\\C=C\\[C@H](C)C1)[C@]32O", "note": "[Compound 11, Milbemycin α9]", "values": [
      {"measurement": "MIC", "setting": "[11]; YEM71, read-out: Milbemycin α9 MIC", "result": "> 64", "unit": "µg/mL"},
      {"measurement": "MIC", "setting": "[11]; YEM71, read-out: Terbinafine MIC in the presence of FEPImax", "result": 2, "unit": "µg/mL"},
      {"measurement": "FEPImax (minimal milbemycin α9 conc. for maximum MIC reduction), fluconazole", "setting": "[11]; YEM-71", "result": 1, "unit": "µg/mL"},
      {"measurement": "FEPImax (minimal milbemycin α9 conc. for maximum MIC reduction), itraconazole", "setting": "[11]; YEM-71", "result": 0.25, "unit": "µg/mL"},
      {"measurement": "FEPImax (minimal milbemycin α9 conc. for maximum MIC reduction), ketoconazole", "setting": "[11]; YEM-71", "result": 2, "unit": "µg/mL"},
      {"measurement": "FEPImax (minimal milbemycin α9 conc. for maximum MIC reduction), terbinafine", "setting": "[11]; YEM-71", "result": 0.008, "unit": "µg/mL"},
      {"measurement": "Fluconazole MIC in the presence of FEPImax", "setting": "[11]; [16]", "result": 8, "unit": "µg/mL"},
      {"measurement": "Itraconazole MIC in the presence of FEPImax", "setting": "[11]; [16]", "result": 0.008, "unit": "µg/mL"},
      {"measurement": "Ketoconazole MIC in the presence of FEPImax", "setting": "[11]; [16]", "result": 0.015, "unit": "µg/mL"},
      {"measurement": "MIC Reduction Factor, fluconazole", "setting": "[11]; [16]", "result": 16},
      {"measurement": "MIC Reduction Factor, itraconazole", "setting": "[11]; [16]", "result": 64},
      {"measurement": "MIC Reduction Factor, ketoconazole", "setting": "[11]; [16]", "result": 128},
      {"measurement": "MIC Reduction Factor, terbinafine", "setting": "[11]; [16]", "result": 64},
      {"measurement": "MIC", "setting": "[12]; read-out: Milbemycin α9 MIC", "result": "> 64", "unit": "µg/mL"},
      {"measurement": "MIC", "setting": "[12]; read-out: Terbinafine MIC in the presence of FEPImax", "result": 0.5, "unit": "µg/mL"},
      {"measurement": "FEPImax (minimal milbemycin α9 conc. for maximum MIC reduction), fluconazole", "setting": "[12]; YEM-37 (CDR2)", "result": 1, "unit": "µg/mL"},
      {"measurement": "FEPImax (minimal milbemycin α9 conc. for maximum MIC reduction), terbinafine", "setting": "[12]; YEM-37 (CDR2)", "result": 4, "unit": "µg/mL"},
      {"measurement": "Pump inhibition (%), fluconazole", "setting": "[12]; [17]", "result": 100, "unit": "%"},
      {"measurement": "Pump inhibition (%), terbinafine", "setting": "[12]; [17]", "result": 100, "unit": "%"},
      {"measurement": "Fluconazole MIC in the presence of FEPImax", "setting": "[12]; [18]", "result": 0.5, "unit": "µg/mL"},
      {"measurement": "MIC Reduction Factor, fluconazole", "setting": "[12]; [18]", "result": 8},
      {"measurement": "pIC50", "setting": "[13]", "result": "< 4.00"},
      {"measurement": "Fluconazole MIC50, + milbemycin α9", "setting": "[14]", "result": "<0.25", "unit": "µg/mL"},
      {"measurement": "Fluconazole MIC90, + milbemycin α9", "setting": "[14]", "result": "<0.25", "unit": "µg/mL"},
      {"measurement": "Fluconazole MIC Range, + milbemycin α9", "setting": "[14]", "result": "<0.25 to 1", "unit": "µg/mL"},
      {"measurement": "Reduction of fluconazole MIC90 by milbemycin α9", "setting": "[14]; C. albicans (n=33)", "result": "> 512", "unit": "fold"},
      {"measurement": "Fluconazole MIC, + milbemycin α9", "setting": "[15]", "result": "≦0.25 μg/ml"}
    ]}
  ]
}
